From patent US20230181673A1, “TRI-PEPTIDES AND TREATMENT OF METABOLIC, CARDIOVASCULAR AND INFLAMMATORY DISORDERS” (Diapin Therapeutics, LLC, priority 2018, published 2023)
Non-standard residues stand in square brackets, D forms with d. No end group written: not given here.

How the values were obtained:
liver transcriptome = format: in vivo, mice; conditions: for TGFβ signaling and ECM remodeling pathways/genes (RNA-sequencing) / Pro-inflammatory signaling regulator and cytokine genes (NFKB1/2, RELB, CCR1/2/5, TLR1/2/4, TNFRSF1A/9/12, TNFα, CCL2/5) / Key genes regulating FAO (PPARα, PGC1α, ACOX1, CPT2, ACADS/M/L, HADHA/B, ACOT3/4): NASH-diet; for TGFβ signaling and ECM remodeling pathways/genes (RNA-sequencing): liver; for Pro-inflammatory signaling regulator and cytokine genes (NFKB1/2, RELB, CCR1/2/5, TLR1/2/4, TNFRSF1A/9/12, TNFα, CCL2/5) / Key genes regulating FAO (PPARα, PGC1α, ACOX1, CPT2, ACADS/M/L, HADHA/B, ACOT3/4): RNA-sequencing; for Key genes regulating FAO (PPARα, PGC1α, ACOX1, CPT2, ACADS/M/L, HADHA/B, ACOT3/4): confirmed by qPCR and Western blot
Method: Library preparation and sequencing were performed by the U-M DNA Sequencing Core on a NovaSeq 6000 Sequencing System (Illumina). RNA-sequencing and pathway analyses were performed as described.
Total RNA from mouse liver samples was extracted as described above. Library preparation and sequencing were performed by the University of Michigan DNA Sequencing Core. RNA was assessed for quality using the TapeStation (Agilent, Santa Clara, Calif.). […] Samples were prepped using the NEBNext Ultra II Directional RNA Library Prep Kit for Illumina (NEB, E7760L) with Poly(A) mRNA Magnetic Isolation Module (NEB, E7490L) and NEBNext Multiplex Oligos for Illumina Unique dual (NEB, E6440L), where 10 ng-1 μg of total RNA were subjected to mRNA polyA purification. The mRNA was then fragmented and copied into first strand cDNA using reverse transciptase and dUTP mix. Samples underwent end repair and dA-Tailing step followed by ligation of NEBNext adapters. The products were purified and enriched by PCR to create the final cDNA library. Final libraries were checked for quality and quantity by TapeStation (Agilent) and qPCR using Kapa's library quantification kit for Illumina Sequencing platforms (Kapa Biosystems, KK4835). Libraries were paired-end sequenced on a […] Sequencing System (Illumina).
The quality of the raw Fastq files was checked through FastQC v0.11.8 (https://www.bioinformaties.babraham.ac.uk/projects/fastqc/). Trimmomatic v.0.35 was used to trim the low-quality reads with the parameters: SLIDINGWINDOW:4:20 MINLEN:25.12 The resulted high-quality reads were then mapped to the mouse reference genome (GRCm38.90) using HISAT2 v.2.1.0.13 Gene level quantification was performed using HTSeq-counts v0.6.0 based on the GRCm38.90 genome annotations.14 The R package DESeq2 was then used to identify significant differentially expressed genes. 15 We considered genes with adjusted P value less than 0.05 and absolute fold change larger than 2 as significant differentially expressed genes (DEGs). […] 16 The significance of the enrichment was determined by right-tailed Fisher's exact test followed by Benjamini-Hochberg multiple testing adjustment.
(§1) Mice fed CD and administered H2O served as control.

[1] = Body weight, food intake and adiposity in apoE−/− mice fed Western diet; format: in vivo; conditions: apoE−/− mice on WD; for Total gain in body weight from baseline to endpoint, lower by: 12 weeks oral gavage, DT-109 1 mg/g; for Gross appearance of the peritoneal cavities at endpoint (yellowish coloration of the liver, enlarged visceral fat pads): glycine 0.67, leucine 0.33, DT-109/DT-110 1 mg/g; for Adipocyte hypertrophy in EAT and SAT: H&E histology (FIG. 15L)
Source text: (§2) All animal procedures were approved by the Institutional Animal Care & Use Committee of the University of Michigan (PRO00008239) and performed in accordance with the institutional guidelines. Eight-week-old male apolipoprotein E-deficient (apoE−/−) mice (B6.129P2-Apoetm1Unc/J, Stock No.: 002052) were obtained from Jackson Laboratories. Mice were fed Western diet (WD, 42% of calories from fat and 0.2% cholesterol by weight, Envigo TD.88137). After one week of WD feeding, blood was carefully collected from the facial vein to determine baseline plasma levels of total cholesterol (TC). […] All mice were maintained on a 12-hour light/dark cycle and had ad libitum access to food and water. Body weight and food intake were measured every one and three weeks, respectively
The experimental design is depicted in FIG. 1A. After one week of Western diet (WD) feeding to apoE−/− mice, blood was collected from the facial vein (FV) to determine baseline plasma levels of TC.
Animal procedures were approved (PRO00008239) by the Institutional Animal Care & Use Committee of the University of Michigan (U-M) and performed in accordance with the institutional guidelines. Seven weeks-old C57BL/6J or apoE−/− mice (B6.129P2-Apoetm1Unc/J, Stock:002052) were from Jackson Laboratories. AGXT1−/− mice on C57BL/6J background were generated using CRISPR/Cas9, with guide-RNA targeting exon 1 of AGXT1: 5′-[…]-3′.
Histological procedures were performed by technicians blinded to the experimental groups at the In Vivo Animal Core (IVAC) Histology Laboratory, University of Michigan. Formalin-fixed tissues were processed through graded alcohols and cleared with xylene followed by infiltration with molten paraffin using an automated VIP5 or VIP6 tissue processor (TissueTek, Sakura-Americas). Using a Histostar Embedding Station (ThermoFisher Scientific), tissues were then sectioned on a M355S rotary microtome (ThermoFisher Scientific) at 4 μm thickness and mounted on glass slides. Slides were stained for hematoxylin and eosin (H&E, ThermoFisher Scientific). For Sirius Red staining, slides were treated with 0.2 phosphomolybdic acid for 3 min and transferred to 0.1% Sirius Red saturated in picric acid (Rowley Biochemical Inc.) for 90 min, then transferred to 0.01N hydrochloric acid for 3 min.

hepatic gene expression = format: in vivo, mice; conditions: NASH-diet, liver
Method: (§3) Total RNA from mouse liver samples was extracted using QIAGEN's RNeasy kits (QIAGEN). RNA was reverse-transcribed into cDNA with SuperScript III and random primers (Invitrogen). Specific transcript levels were assessed by a real-time PCR system (Bio-Rad) using IQ SYBR Green Supermix (Bio-Rad) and the ΔΔCt threshold cycle method of normalization. Gene expression levels were normalized to glycerldehyde 3-phosphate dehydrogenase (GAPDH).
as §1

blood glucose = assay: OGTT and non-fasting/endpoint blood glucose in WD-fed apoE−/− mice; format: in vivo; conditions: for Endpoint glucose levels, lower by: following a 6 h fast, after 12 weeks, vs WD+H2O; for Non-fasting blood glucose 30 min post-gavage vs pre-gavage, decreased by: routine oral gavage, glycine 0.67, leucine 0.33, DT-109/DT-110 1 mg/g; for Acute OGTT: blood glucose 30 min after glucose with treatment / Acute OGTT: blood glucose at later time points (60-120 min): week 10, overnight fast, oral; for Acute OGTT: blood glucose 30 min after glucose with treatment: glucose 2 mg/g plus glycine 0.67, leucine 0.33, DT-109 or DT-110 1 mg/g; for Acute OGTT: blood glucose at later time points (60-120 min): glucose 2 mg/g plus treatment
Source text: as §2, with “Eight-week-old” for “All animal procedures were approved by the Institutional Animal Care & Use Committee of the University of Michigan (PRO00008239) and performed in accordance with the institutional guidelines. Eight-week-old”
At week 10, oral glucose tolerance tests (OGTT) were performed following an overnight fast by administering 2 mg/g of glucose via oral gavage. […] To evaluate the chronic effects of the treatments, mice were administered with glucose alone. […] Then, mice were administered with glucose with (acute) or without (chronic) treatments and blood glucose levels were measured every 30 min for up to 120 min. To assess the effects of the treatments on non-fasting glucose levels, blood was collected from the tip of the tail before routine administration of treatments via oral gavage (pre-gavage) and 30 min afterwards (post-gavage).
OGTT were performed after 12 h fasting.

[2] = system: adipose tissue gene expression; assay: qPCR of inflammatory cytokines in epididymal and subcutaneous adipose tissue of WD-fed apoE−/− mice; format: in vivo; conditions: endpoint
Source text: as §2, with “Eight-week-old” for “All animal procedures were approved by the Institutional Animal Care & Use Committee of the University of Michigan (PRO00008239) and performed in accordance with the institutional guidelines. Eight-week-old”
as §3, with “from” for “from mouse”, “liver or adipose tissue” for “liver”, “glyceraldehyde” for “glycerldehyde”, “(GAPDH). Primer pairs used for qPCR were obtained from Integrated DNA Technologies and are listed below: […]” for “(GAPDH).”

Row | Compound | TGFβ signaling and ECM remodeling pathways/genes (RNA-sequencing) (liver transcriptome) | Pro-inflammatory signaling regulator and cytokine genes (NFKB1/2, RELB, CCR1/2/5, TLR1/2/4, TNFRSF1A/9/12, TNFα, CCL2/5) (liver transcriptome) | Key genes regulating FAO (PPARα, PGC1α, ACOX1, CPT2, ACADS/M/L, HADHA/B, ACOT3/4) (liver transcriptome) | Total gain in body weight from baseline to endpoint, lower by ([1]; glycine 0.67 mg/g, vs WD+H2O) | Gross appearance of the peritoneal cavities at endpoint (yellowish coloration of the liver, enlarged visceral fat pads) ([1]; 12 weeks) | Adipocyte hypertrophy in EAT and SAT [1] | Endpoint body weight, lower by ([1]; oral gavage 6 times per week, 12 weeks, glycine 0.67 mg/g, vs WD+H2O) | NFKB2, RELB and TNFα expression (qPCR) (hepatic gene expression) | Endpoint glucose levels, lower by (blood glucose) | Non-fasting blood glucose 30 min post-gavage vs pre-gavage, decreased by (blood glucose) | Acute OGTT: blood glucose 30 min after glucose with treatment (blood glucose) | Acute OGTT: blood glucose at later time points (60-120 min) (blood glucose) | MCP1 expression in EAT and SAT [2] | TGFβ-related genes (qPCR) (hepatic gene expression) | Pathway analysis, NASH-diet H2O control vs treatment (liver transcriptome; DT-109 0.5 mg/g/day) | CCL2, CCR2 and CCR5 expression (qPCR) (hepatic gene expression; 0.5 mg/g/day DT-109) | Glucose-lowering in OGTT and in non-fasting glucose (blood glucose; apoE−/− mice on WD, after 10 weeks, DT-109 1 mg/g/day vs equivalent leucine, glycine or H2O) | TNFα expression in EAT [2]
1 | NCC(=O)O [glycine, reference compound] | attenuated | attenuated | reversed | 51% | attenuated | reduced | 12% | significantly downregulated | 41% | 10% | most significant effects | significantly decreased | significantly suppressed | – | – | – | – | –
2 | CC(C)C[C@H](N)C(=O)O [leucine] | – | upregulated | suppressed | – | yellowish coloration of the liver and enlarged visceral fat pads | – | – | – | – | trends towards increased blood glucose | – | – | – | markedly upregulated | – | – | – | –
3 | Gly-Gly-Leu [DT-109] | attenuated | attenuated | reversed | 28% | attenuated | reduced | – | significantly downregulated | 30% | 21% | most significant effects | significantly decreased | significantly suppressed | attenuated | reversed NASH-diet-induced alterations in underlying pathways | downregulated | most potent glucose-lowering effects | –
4 | Gly-Gly-[dL] [DT-110] | – | – | – | – | attenuated | – | – | – | – | 13% | – | significantly decreased | significantly suppressed | – | – | – | – | most significant effects
